In PMC12176268, “Structural Features and Photophysical and Antiproliferative Properties of Me2N‑pbt-Cycloplatinated Complexes with Picolinate Ligands” (Inorganic Chemistry, 2025):
Like-named read-outs stand apart in the source and are kept apart here.

What was measured:
[1] = biological target: bovine serum albumin (BSA) (Bos taurus, UniProt P02769); assay: Emission and UV–vis titration of complex 3 with BSA; assay type: binding; settings: 10 μM complex, BSA 0–50 μM, H2O/DMSO 95/5, λexc 450 nm
Experimental: The possible interaction of these Pt(II) complexes with the model protein bovine serum albumin (BSA) was studied by fluorescence and UV–vis spectroscopy. […] The effect of increasing the amount of BSA (from 0 to 50 μM) on solutions of complex 3 in mixtures of H2O/DMSO (95/5 v/v) while keeping the concentration of 3 (10 μM) constant was evaluated. Upon addition of BSA (3/BSA 1:0.25), a slight blue shift of the emission band from 510 to 495 nm is observed, and a clear switch-on of the monomer phosphorescence (^3ILCT), as a structured band slightly blue-shifted (ca. 574 nm) in relation to the complex in DMSO is observed. The intensity of this latter band reaches a maximum when the 3/BSA ratio was ca 1:1 (Figure ). […] In particular, the decrease in fluorescence emission and the switch-on of the monomer phosphorescence can be attributed to the binding of 3 to the hydrophobic pockets of the protein, which increases the rigidity of its environment and decreases the nonradiative constant.
For the BSA binding experiment, solutions of complex 3 with BSA in mixtures of DMSO/H2O (5/95 v/v) were prepared, keeping the concentration of 3 (10 μM) constant and increasing the amount of BSA (from 0 to 50 μM). […] The fluorescence intensities were then measured at λexc = 450 nm, and the emission fluorescence spectra were recorded in the wavelength range λ = 400–800 nm.

A549 = assay: MTT cell viability assay on A549 cells, dark and 450 nm irradiation; assay type: cell-based, human; settings: for EC50: MTT
Source text: (§1) (C∧N) cyclometalated Pt(II) complexes have been previously reported to have strong antiproliferative activities when associated with phenanthroline-based, diphosphine, acyclic diamino carbenes, or picolinate ligands. In particular, (Me2N-pbt)-cyclometalated platinum complexes have been previously reported by some of us to have antiproliferative properties in the micromolar range on a panel of cancer cell lines, prompting us to investigate the anticancer properties of complexes 1–4 in dark conditions and, considering their high quantum yield (ϕΔ) of ^1O2 generation, under irradiation conditions. Due to the poor solubility of the complexes in an aqueous environment, complexes 1–4 were first dissolved in DMSO and diluted in the culture media to reach a final concentration of 1% DMSO when incubated with the cells. All complexes were screened against the so-called “triple-negative” breast cancer cell line MDA-MB-231, lung adenocarcinoma cell line A549, and the noncancerous breast cell line MCF-10A for 72 h in dark conditions and under 5 min irradiation at 450 nm (see Experimental Section for details). The irradiation time was kept short to prevent light-induced toxicity of the energetic wavelength observed at longer irradiation times (data not shown). The measurement of the effective concentration at 50% (EC50) was carried out using the classical MTT assay, and the data are provided in Table .
(§2) In dark conditions, we could notice a strong influence of substituents on the picolinate ligands. […] This can be correlated with its poor stability in the culture medium mentioned above, which might reduce its cellular uptake. […] However, in dark conditions, no particular selectivity for cancer cells could be observed with similar activity measured against the noncancerous cell line MCF-10A. For the “light” experiments, the cells were preincubated with the complexes for 4 h in the dark, irradiated at 450 nm for 5 min, and then put back in the dark until 72 h. The photoactivity index (PI) values, defined as the ratio between the EC50 in dark conditions and the EC50 after irradiation for each cell line, are shown in Figure .
(§3) The human lung adenocarcinoma cell line A549 and human breast cancer cell line MDA-MB-231 were cultivated in DMEM (Dulbecco’s modified Eagle’s medium) containing GlutaMax I supplemented with 10% FBS at 37 °C in a humidified atmosphere and 5% CO2. The noncancerous cell line MCF-10A was maintained in DMEM:F12 (1:1) cell culture media, 5% heat-inactivated horse serum, supplemented with HEPES (20 mM), L-glutamine (2 mM), epidermal growth factor (20 ng/mL), hydrocortisone (500 ng/mL), cholera toxin (100 ng/mL), and insulin (10 μg/mL). Cell viability was evaluated by using a colorimetric method based on the tetrazolium salt MTT [3-(4,5-dimethylthiazol-2-yl)-2,5-diphenyltetrazolium bromide], which is reduced by viable cells to yield purple formazan crystals. Cells were seeded in 96-well plates at a density of 40000 cells/mL (100 μL per well). Stock solutions were prepared in DMSO for complexes 1–4 and in water for cisplatin. […] For dark experiments, after overnight attachment, a dilution series of the compounds was added to the medium, and the cells were incubated for a further 72 h. For the irradiated experiments, after overnight attachment, a dilution series of the compounds was added to the medium, and the cells were preincubated for 4 h. The cells were then irradiated at 450 nm for 5 min with a Kessil Lamp (power: 3 mW/cm^2, 1.13 × 10^–8 Einstein/s at 20 cm distance between the light source and 96-well plate) and the incubation was continued until 72 h. After 72 h, the medium was removed and the cells were incubated with MTT solution in PBS (10 μL of 5 mg/mL) for 2–3 h. The formed purple formazan crystals were dissolved in 100 μL of DMSO by thorough shaking, and the absorbance at 580 nm was read using a microplate reader (FLUOstar OPTIMA, BMG Labtech). Each test was performed with at least 3 replicates and repeated at least 3 times. […]

MDA-MB-231 = assay: MTT cell viability assay on MDA-MB-231 cells, dark and 450 nm irradiation; assay type: cell-based, human; settings: for EC50: MTT
Source text: as §1, §2, §3

Sequence of bovine serum albumin (BSA) (P02769 25-607): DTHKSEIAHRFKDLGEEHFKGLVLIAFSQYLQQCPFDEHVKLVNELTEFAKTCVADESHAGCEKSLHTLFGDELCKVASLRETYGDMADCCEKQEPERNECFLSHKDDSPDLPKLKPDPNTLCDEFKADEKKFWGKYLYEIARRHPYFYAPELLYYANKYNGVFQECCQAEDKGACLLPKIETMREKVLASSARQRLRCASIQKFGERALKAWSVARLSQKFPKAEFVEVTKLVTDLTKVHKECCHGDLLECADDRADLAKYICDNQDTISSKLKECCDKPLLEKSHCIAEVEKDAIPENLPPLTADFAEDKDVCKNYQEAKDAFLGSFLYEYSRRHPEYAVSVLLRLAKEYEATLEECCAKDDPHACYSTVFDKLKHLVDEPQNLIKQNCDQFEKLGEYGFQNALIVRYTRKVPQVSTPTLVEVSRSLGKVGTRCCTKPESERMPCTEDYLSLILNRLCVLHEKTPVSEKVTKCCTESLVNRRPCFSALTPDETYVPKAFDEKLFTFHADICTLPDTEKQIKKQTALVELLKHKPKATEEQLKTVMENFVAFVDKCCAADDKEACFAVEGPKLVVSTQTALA

Substance: [Pt(Me2N-pbt)(3-OH-pic-κN,O)] [Complex 3]
- interaction with BSA (changes of emission and UV–vis spectra) [1]: interacts strongly with BSA
- photoactivity index (PI), EC50 dark / EC50 after irradiation, A549 (A549; 5 min irradiation at 450 nm): 5.6
- EC50 (A549; 4 h preincubation, 5 min irradiation at 450 nm, then dark until 72 h, read-out: EC50 A549 light): 1100 ± 80 nM
- EC50 (A549; 72 h incubation at 37 °C, dark, read-out: EC50 A549 dark): 6100 ± 200 nM
- reduction of the antiproliferative activity relative to 1, A549 (A549; dark conditions): ~5 times
- EC50 (MDA-MB-231; 4 h preincubation, 5 min irradiation at 450 nm, then dark until 72 h, read-out: EC50 MDA-MB-231 light): 220 ± 30 nM
- EC50 (MDA-MB-231; 72 h incubation at 37 °C, dark, read-out: EC50 MDA-MB-231 dark): 2600 ± 800 nM
- reduction of the antiproliferative activity relative to 1, MDA-MB-231 (MDA-MB-231; dark conditions): ~5 times
- lower activity toward MDA-MB-231 cells compared to the noncancerous cells (MDA-MB-231; dark conditions, versus MCF-10A): 2 fold
- activity on MDA-MB-231 compared to the noncancerous cell line (MDA-MB-231; upon irradiation (450 nm, 5 min), versus MCF-10A): twice as active
